What was measured:
Conditions in all cases: MEP vs vehicle
[1] = Brain acyl-CoA concentrations (LC-MS/MS) in vehicle- or MEP-treated rats; format: in vivo, rat
Description: At 15 weeks of age, 16 rats were randomized to receive vehicle or 10 mg/kg MEP via tail vein catheter as described above. Fifteen minutes post injection, rats were euthanized by head-focused high energy microwave irradiation (13.5 kW for 1.6 s) and brains were excised and sagittally cut for unesterified FAs/lipid mediators and acyl-CoA analyses as described below. Brain hemispheres were homogenized in ethanol to yield a concentration of 100 mg tissue/ml. The unesterified FAs from 100 mg of brain tissue were isolated. The unesterified FA bands were collected and extracted twice from silica by hexane:isopropanol (3:2 by volume) with 5.5% water. Extracted unesterified FAs were dried down with nitrogen gas and added with 100 μl of freshly made pentafluorobenzylbromide (PFB) cocktail consisting of acetonitrile:N,N-diisopropylethylamine:PFB (1 ml:100 μl:10 μl by volume). The mixtures were shaken for 15 min and dried down with nitrogen gas. FA-PFB esters (FAPEs) were reconstituted in 100 μl hexane for GC-MS analysis as described below.
Long chain acyl-CoA was extracted from the brains of vehicle- and MEP-treated rats as well as the brains of radiotracer-infused rats using a modified affinity chromatography method ([40]). Brains were homogenized by a probe sonicator in isopropanol:25 mM KH2PO4:acetonitrile (1:1:2 by volume) with 10 nmol of added internal standard, heptadecanoyl-CoA (17:0-CoA). Subsequently, protein was precipitated from the homogenate by the addition of saturated (NH4)2SO4. […]
Acyl-CoA concentrations were detected using an Agilent 1200 Binary LC pump (Agilent Technologies, Wilmington, DE) equipped with a Zorbax SB-Phenyl column (3 × 50 mm, 3.5 μm spherical size; Chromatographic Specialties, Brockville, ON, Canada). […] Peaks were identified and quantified by mass transitions, compound specific parameters, and standard curves of authentic acyl-CoA standards (Avanti, Alabaster, AL) (supplementary Fig. I). Concentrations were corrected for percent recovery of heptadecanoyl-CoA and expressed as nmol/g brain.

[2] = Brain total phospholipid and phospholipid class FA concentrations (GC-FID); format: in vivo, rat
From the text: Total lipids from one brain hemisphere and from plasma were extracted by the method of Folch, Lees, and Sloane Stanley ([39]). Isolation of various neutral lipid and phospholipid classes from the total lipid extract was previously described by Chen, Liu, and Bazinet ([6]).
Brain FA concentrations from total and phospholipid classes were quantified as described by Chen, Liu, and Bazinet ([6]).

[3] = In vivo kinetics of FA incorporation and turnover in brain phospholipids (intravenous radiotracer infusion, kinetic model); set-up: species or system rat
Outline: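 Rats were given vehicle or MEP 10 mg/kg via tail vein, then radiolabelled fatty acid was infused intravenously for 5 min to steady-state plasma radioactivity while the animals were unanesthetized, with serial jugular blood sampling. They were killed by head-focused microwave irradiation, and brain incorporation was modelled from plasma unesterified fatty acid and acyl-CoA pools.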

Q: With `CCCCCCCCCCCCCCC1(C(=O)OC)CO1` (stereo not shown) [MEP, methyl-2-tetradecylglycidate, reference compound] as the molecule, how does the “increase in brain α-linolenoyl-CoA concentration” value [1] read?
A: 49%

Q: What about the “reduction in brain DHA-CoA” value [1] of the same molecule?
A: 26%

Q: And the “reduction in brain EPA-CoA” value [1]?
A: 16%

Q: And the “reduction in ARA from PtdSer” value [2]?
A: 8%

Q: And the “reduction in linoleate from EtnGpl” value [2]?
A: 9%

Q: And the “fold increase in esterification of 14C-palmitate into diacylglycerol” value [3]?
A: 2 fold

Q: And the “fold increase in esterification of 14C-palmitate into triacylglycerol” value [3]?
A: 2 fold

Q: And the “fold increase of t1/2 of EPA in ChoGpl” value [3]?
A: 1.7 fold

Q: What about the “fold increase of t1/2 of EPA-synthesized DHA in ChoGpl” value [3] of the same molecule?
A: 4.3 fold

Q: What about the “fold increase of t1/2 of EPA-synthesized DHA in EtnGpl” value [3] of the same molecule?
A: 2.5 fold

Q: And the “fold increase of t1/2 of EPA-synthesized DHA in brain total phospholipids” value [3]?
A: 4.2 fold

Q: What about the “fold increase of t1/2 of EPA-synthesized n-3 DPA in PtdSer” value [3] of the same molecule?
A: 1.6 fold

Q: What about the “reduction of FFA of DHA in brain total phospholipids” value [3] of the same molecule?
A: 24 % per day
